“Also recorded” adds a separate entry of the source. Like-named read-outs stand apart in the source and are kept apart here.
Assays:
[1] = test system: LsrK; conditions: Figure 2, cited from earlier work
[2] = target: T1, LsrK (Salmonella typhimurium, UniProt Q8ZKQ6); test: LsrK inhibition assay (Kinase-Glo luminescence); format: biochemical; conditions: for IC50 / inhibition at 200 µM / Inhibition (%): mean ± SD, n = 3; for inhibition at 200 µM: Table 1, hits at 200 μM with 100 μM ATP; for Inhibition (%): Supplementary Table 1, 200 uM compound, * = colour of the compound interferes with luminescence; for type of LsrK inhibition: from IC50 values at 50, 100 and 150 μM ATP
T1 sequence (Q8ZKQ6 whole entry): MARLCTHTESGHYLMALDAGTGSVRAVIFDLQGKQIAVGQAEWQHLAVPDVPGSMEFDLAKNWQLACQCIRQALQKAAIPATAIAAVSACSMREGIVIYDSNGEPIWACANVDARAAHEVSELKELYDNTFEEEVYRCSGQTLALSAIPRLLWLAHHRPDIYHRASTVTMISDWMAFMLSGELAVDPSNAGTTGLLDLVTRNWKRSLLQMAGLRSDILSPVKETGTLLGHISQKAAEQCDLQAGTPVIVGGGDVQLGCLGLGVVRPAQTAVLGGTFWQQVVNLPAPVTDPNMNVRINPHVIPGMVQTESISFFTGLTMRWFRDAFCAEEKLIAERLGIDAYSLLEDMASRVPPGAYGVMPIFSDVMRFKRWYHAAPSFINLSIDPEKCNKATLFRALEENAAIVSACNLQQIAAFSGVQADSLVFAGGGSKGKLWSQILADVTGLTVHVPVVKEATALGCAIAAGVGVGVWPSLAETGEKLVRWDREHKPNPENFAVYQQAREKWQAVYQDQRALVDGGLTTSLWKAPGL
Procedure: (§1) To express LsrK with a 6 × His-tag at the C-terminus, the LsrK encoding gene of Salmonella typhimurium was amplified using primers carrying restriction endonuclease sites BamHI and XhoI. The amplified product was cloned into the expression vector pET-28a with a C-terminal 6 × His-tag and transfected into E. coli BL21 (DE3).
This assay was performed as previously described ([Gatta et al., 2019]), and the conditions were optimized. […] 74 purchased compounds were dissolved in dimethyl sulfoxide (20% v/v DMSO in reaction buffer) at a concentration of 2 mM. Briefly, 10 μL DPD, 10 μL LsrK, and 5 μL compound were added to a 96-well plate, and 25 μL ATP or 25 μL reaction buffer was added after 30 min incubation. The plate was incubated for 10 min at 37°C, then 50 μL of kit reagent was added, and the plate was incubated at 37°C for 15 min. The luminescence signal was measured using an Enspire 2300 microplate reader (PerkinElmer). Dose-response tests were carried out to verify the activity of hits chosen by primary screening. (200 μM–6.25 µM) ([Medarametla et al., 2018]). The inhibition percentage of each tested compound was determined as previously described and IC50 was calculated using four logistic parameters.

[3] = test system: AI-2-mediated QS (lsr promoter luminescence, reporter strain WHQ02); test: Cell-based AI-2-mediated QS interference assay; parameters: species or system E. coli; conditions: for IC50: Escherichia coli, cell-based QS interference assay, WHQ02, mean ± SD, n = 3; for AI-2 QS inhibitory activity (in words) / maximum AI-2 QS inhibition: 100 to 3.13 μM
From the text: All chemicals were purchased from Sigma-Aldrich (St. Louis, MO, United States) unless otherwise stated. DPD was purchased from the […] ZZBIO Co., LTD. (Shanghai, China). The Kinase-Glo Max Luminescent Kinase Assay Kit was purchased from Promega (Madison, WI, United States). NTA sensor chips were purchased from GE Healthcare (Chicago, IL, United States). All compounds used as potential inhibitors of LsrK were purchased from Topscience Biotechnology Co. Ltd. (Shanghai, China). The QS reporter strain WHQ02 (E. coli BL21 ΔTolC pWHQ01) was donated by Huiqi Wen (Institute of Microbiology and Epidemiology, Academy of Military Sciences, Beijing, China). The plasmid pWHQ01 was constructed by cloning the lsr promoter and the luxCDABE luminescent gene. BamHI and XhoI were purchased from New England Biolabs (Ipswich, MA, United States). pET-28a was purchased from Novagen (Madison, WI, United States). Escherichia coli BL21 (DE3) cells were purchased from TransGen Biotech Co., LTD. (Beijing, China). A Ni-NTA column was purchased from Sangon Biotech (Shanghai, China). Sodium dodecyl sulfate-polyacrylamide gel electrophoresis (SDS-PAGE) and the Bradford Protein Assay Kit were purchased from Thermo Fisher Scientific (Waltham, MA, United States).
(§2) WHQ02 cultured overnight were diluted 1:100 in fresh LB supplemented with 100 μg/mL ampicillin and grown at 30°C and until the logarithmic phase (OD600 = 0.4–0.6). The bacterial culture was centrifuged at 4,000 × g for 5 min, and the pellet was resuspended in fresh LB medium to prepare a suspension of 2 McFarland standard and added to the 96-well plate. In the experimental group, 74 compounds (final concentrations ranging from 100 to 3.125 μM) were added to reach a total volume of 100 µL. In addition, 100 µL LB medium with an equal volume of DMSO (negative control) or 100 µL LB supplemented with 2% glucose and the same volume of DMSO (positive control) were added. Bacteria was cultured at 37°C with shaking for 3 h. The […] of WHQ02 is directly regulated by the lsr promoter, reflecting the strength of QS. The luminescence and OD600 were measured using an Enspire 2300 microplate reader (Perkin Elmer). To further study the effect of compounds on bacterial growth, overnight cultured WHQ02 was diluted 1:1,000 with LB medium and added to 96 well plate. Then, the compounds were added to a 96-well plate (final concentration: 100 µM) and diluted in a gradient. The same volume of DMSO was added to the control group. The plates were incubated at 37°C for 18 h. OD600 values were recorded using an Enspire 2300 microplate reader. The experiment was performed in triplicate.

[4] = test system: WHQ02 (E. coli BL21 ΔTolC pWHQ01); test: Growth inhibition of the reporter strain (OD600); format: cell-based; conditions: 100 to 3.13 μM
Procedure: as §2
The 12 hits showing >60% LsrK inhibition were tested for QS inhibition using cell-based AI-2-mediated QS interference assay, as previously described [Baba et al., 2006]). To ensure that lower luminescence was the result of QS inhibition not the chemical toxicity or antibacterial activity, strain growth inhibition was assessed concurrently. […] Therefore, a parallel experiment to test the MIC of compounds at a low bacterial density was conducted, indirectly reflecting the potential growth inhibition to avoid false positives.

[5] = test system: AI-2 QS; conditions: Figure 2, ref Gatta et al., cited from earlier work
[6] = target: T1, LsrK; test: SPR assay; format: binding
From the text: as §1
His-tagged LsrK was immobilized in the NTA sensor chip (GE Healthcare) in Biacore 8 K using a running buffer consisting of 1 × PBS-T and 5% v/v DMSO. Serially diluted small molecules (concentration range: 50 to 1.56 µM) were injected. Intermediate concentration (12.5 µM) was set as a repeat, and 1 × PBS-T with 5% v/v DMSO was set as the control. The association time was set to 120 s; the dissociation time was set to 130 s; and the flow rate was set to 30 μL/min. The resulting data were fitted to the affinity binding model using Biacore Evaluation Software (GE Healthcare).

Cc1ccc(Cl)c(Nc2ccccc2C(=O)O)c1Cl [compound 1]
IC50 ([1]; ref Medarametla et al., 2018): 178 µM

Cc1c(CC(=O)O)c(=O)oc2cc(OCc3ccc(C(=O)O)o3)ccc12 [Y040-9027]
IC50 ([2]; 100 μM ATP, read-out: IC50B): 90 ± 5.18 µM | inhibition at 200 µM [2]: 94.1 ± 6.72% | IC50 [3]: > 100 µM

CC(C)c1ccc2nc(Cc3cccc(C(N)=O)c3)[nH]c(=O)c2c1 [Z951211480]
Inhibition (%) ([2]; 100 μM ATP): 0%

Cn1nc(-c2ccccc2)cc1C1COC2(CCCCC2)O1 (stereo not shown) [compound 6]
IC50 ([1]; ref Stotani et al., 2019): 119 µM

C/C(=N/NC(=S)Nc1cccc(C(=O)O)c1)c1ccc(C)cc1 [3284–1358]
IC50 ([2]; 50 μM ATP, read-out: IC50A): 29.9 ± 1.95 µM | IC50 ([2]; 100 μM ATP, read-out: IC50B): 41.8 ± 2.57 µM | IC50 ([2]; 150 μM ATP, read-out: IC50C): 88.1 ± 3.89 µM | inhibition at 200 µM [2]: 101 ± 3.82% | type of LsrK inhibition [2]: ATP-competitive inhibitors | AI-2 QS inhibitory activity (in words) [3]: significant QS inhibitory activities | maximum AI-2 QS inhibition [3]: > 80% | IC50 [3]: 37.8 ± 3.18 µM | maximum growth inhibition [4]: < 40%

O=C(O)C[C@H]1S/C(=N\N=C2\C(=O)Nc3ccccc32)N(c2ccc(O)cc2)C1=O [4515–0182]
IC50 ([2]; 100 μM ATP, read-out: IC50B): 52.1 ± 2.68 µM | inhibition at 200 µM [2]: 83.7 ± 9.63% | IC50 [3]: > 100 µM

O=C(O)[C@@H]1[C@@H](C(=O)Nc2cc(C(F)(F)F)ccc2Cl)[C@H]2C=C[C@@H]1O2 [Y204-6349]
IC50 ([2]; 100 μM ATP, read-out: IC50B): 75.1 ± 1.19 µM | inhibition at 200 µM [2]: 87.4 ± 2.6% | IC50 [3]: > 100 µM

O=C(O)CC(=O)Nc1ccc2nc(N(Cc3ccccc3)C(=O)c3cc(Br)c(Br)[nH]3)sc2c1 [compound 2]
IC50 ([1]; ref Gatta et al., 2020): 15 ± 1 µM | IC50 [5]; 2020: 17 µM

O=C1NC(=S)S/C1=C\c1c[nH]c2ccc(OCc3ccccc3)cc12 [3681–1274]
IC50 ([2]; 100 μM ATP, read-out: IC50B): 133 ± 8.85 µM | inhibition at 200 µM [2]: 66.2 ± 3.54% | AI-2 QS inhibitory activity (in words) [3]: significant QS inhibitory activities | IC50 [3]: 42.2 ± 2.15 µM

CN(C)C(=O)C1CCCN1Cc1nc2sc(-c3ccccc3)cc2c(=O)[nH]1 (stereo not shown) [Z196022762]
Inhibition (%) ([2]; 100 μM ATP): 57.11 ± 2.22%

COC(=O)CSC1=NC(=O)C[C@H](c2ccc(Cl)cc2)[C@H]1C#N [2188–1861]
IC50 ([2]; 100 μM ATP, read-out: IC50B): 129 ± 6.85 µM | inhibition at 200 µM [2]: 92.1 ± 6.68% | AI-2 QS inhibitory activity (in words) [3]: significant QS inhibitory activities | IC50 [3]: 38.4 ± 3.35 µM

Cc1[nH]c(C(=O)N/N=C\c2ccc(O)c(O)c2)c(C)c1C(=O)N/N=C\c1ccc(O)c(O)c1 [5617–0915]
IC50 ([2]; 100 μM ATP, read-out: IC50B): 79.4 ± 4.55 µM | inhibition at 200 µM [2]: 71.5 ± 4.33% | IC50 [3]: > 100 µM

O=C(NC(Cc1c[nH]c2ccccc12)C(=O)O)c1ccccc1Cl (stereo not shown) [Z85881721]
Inhibition (%) ([2]; 100 μM ATP): 10.12 ± 8.78%

O=C(O)C(=O)Nc1nc2ccc(NC(=O)c3cc(Br)c(Br)[nH]3)cc2s1 [compound 3]
IC50 ([1]; ref Gatta et al., 2020): 18 ± 2 µM | IC50 [5]; 2020: 0.6 ± 0.1 µM

O=C(O)CCc1ccc(-c2ccccc2)n1CC(=O)Nc1ccccc1C(F)(F)F [D135-0149]
IC50 ([2]; 50 μM ATP, read-out: IC50A): 21.8 ± 1.48 µM | IC50 ([2]; 100 μM ATP, read-out: IC50B): 33.5 ± 2.52 µM | IC50 ([2]; 150 μM ATP, read-out: IC50C): 80.1 ± 4.83 µM | inhibition at 200 µM [2]: 83.9 ± 6.33% | type of LsrK inhibition [2]: ATP-competitive inhibitors | AI-2 QS inhibitory activity (in words) [3]: significant QS inhibitory activities | maximum AI-2 QS inhibition [3]: > 80% | IC50 [3]: 22.1 ± 1.66 µM | maximum growth inhibition [4]: < 40%

O=C(O)CCn1c(=O)[nH]c(=O)c2ccccc21 [Z166653136]
Inhibition (%) ([2]; 100 μM ATP): 0%

C[C@]1(OC(=O)/C=C/c2ccccc2)C[C@@H](O)[C@]2(O)C=CO[C@@H](O[C@@H]3O[C@H](CO)[C@@H](O)[C@H](O)[C@H]3O)[C@@H]21 [compound 4, harpagoside]
IC50 ([1]; ref Gatta et al., 2019): 10 µM | IC50 [5]; 2019: 14 µM

Cc1ccc(C(=O)O)cc1NC(=O)c1nn2cccnc2c1Cl [Y502-2013]
IC50 ([2]; 100 μM ATP, read-out: IC50B): 140 ± 5.54 µM | inhibition at 200 µM [2]: 69.1 ± 8.64% | IC50 [3]: > 100 µM

O=C1C=CC(=C(c2ccc(O)cc2)c2ccc(O)cc2)C=C1 [compound 5, rosolic acid]
IC50 ([1]; ref Gatta et al., 2019): 1 µM | IC50 [5]; 2019: 11 µM

CCOc1ccc(/C=N\NC(=S)Nc2cccc(C(=O)O)c2)cc1O [3284–0335]
IC50 ([2]; 100 μM ATP, read-out: IC50B): 84.9 ± 7.73 µM | inhibition at 200 µM [2]: 67.6 ± 4.88% | IC50 [3]: > 100 µM

Cc1c(O)cc(O)c2c(=O)c(O)c(-c3ccc(O)c(O)c3)oc12 [N025-0038]
IC50 ([2]; 50 μM ATP, read-out: IC50A): 26.6 ± 1.22 µM | IC50 ([2]; 100 μM ATP, read-out: IC50B): 43.7 ± 4.31 µM | IC50 ([2]; 150 μM ATP, read-out: IC50C): 68 ± 1.27 µM | inhibition at 200 µM [2]: 80.5 ± 2.31% | type of LsrK inhibition [2]: ATP-competitive inhibitors | AI-2 QS inhibitory activity (in words) [3]: significant QS inhibitory activities; also recorded: exhibited AI-2 QS inhibition at sub-minimum inhibitory concentrations; also recorded: exhibited QS inhibition at sub-MIC concentrations | IC50 [3]: 12.5 ± 0.99 µM | Kd ([6]; His-tagged LsrK on NTA chip, 50 to 1.56 µM, affinity binding model): 30.3 µM | LsrK specific binding (in words) ([6]; SPR): specifically bound to LsrK; also recorded: exhibited LsrK specific binding

From PMC10244669, “Virtual screening–based discovery of AI-2 quorum sensing inhibitors that interact with an allosteric hydrophobic site of LsrK and their functional evaluation” (Frontiers in Chemistry, 2023)
